Results on one compound are retold here after publication PMC4255672 (2014).

For the assay, the system named is BPA aptamer (DNA, aptamer) CCGCCGTTGGTGTGGTGGGCCTAGGGCCGGCGGCGCACAGCTGTTATAGACGTCTCCAGC
The assay can be described thus: microscale thermophoresis. As to conditions: 25 °C; 5 nM aptamer; BPA 310 pM to 10 μM; Hill1 fit; buffer not stated. For orientation: Microscale thermophoresis detects binding through changes in fluorescence in a small temperature gradient.

In the case of `CC(C)(c1ccc(O)cc1)c1ccc(O)cc1`, the Kd is ~ 100 nM.
